The text below walks through data of US20100028266A1, “Composition and methods for treating allergic response” (Alpha Synergy Development. Inc., priority 2008, published 2010).

The subject of experiment [1] is eyes of a patient with an ocular condition (baseline redness 4/4). The conditions noted are these: brimonidine at 0.01%, 0.02%, […] (left eye) compared with tetrahydrozoline 0.05%, oxymetazoline […], naphazoline […] (right eye). An excerpt:
In an average clinical situation, baseline redness is at 1-1.5/4.

The subject of experiment [2] is patients with chronic red eyes. The experiment can be described thus: Example 5: chronic red eyes, one eye each treatment, patient satisfaction assessment. Type of experiment: in vivo, human. How it is done:
The treatment was through drops twice a day for three to five weeks. At the end, patient satisfaction assessment was conducted.

Experiment [3] concerns eyes of a patient with an ocular condition of moderate hyperemia. Put plainly: FIGS. 5A-C: reversal of pre-induced rebound hyperemia. The format is in vivo, human. The conditions noted are these: brimonidine at […] given after VISINE Original. An excerpt: FIG. 5A is a baseline visual appearance of two eyes of a patient with an ocular condition.

As to `Brc1c(N=C2NCCN2)ccc2nccnc12.O=C(O)C(O)C(O)C(=O)O` [brimonidine, 5-bromo-6-(2-imidazolidinylideneamino)quinoxaline L-tartrate], the “scleral whitening brightening effects” value in experiment [1] is listed as “significant scleral whitening brightening effects”. In addition, in experiment [2] (brimonidine at […] in one eye, Naphcon-A in the other, twice a day for three to five weeks), the “patients who preferred the treatment” value is 42%. The patient-reported redness result in experiment [2] (brimonidine at […], drops twice a day for three to five weeks) is “All patients reported reduced redness”. Moreover, the “effect on VISINE Original induced rebound hyperemia, right eye” value in experiment [3] is “reversing the VISINE Original® induced rebound hyperemia”.
